The text below walks through data of patent US20240425630A1, “POLYMER DISPERSION COMPOSITION” (Dow Global Technologies LLC, priority 2021, published 2024).

Like-named read-outs stand apart in the source and are kept apart here.

For data set [1] the following is noted: cited from earlier work.
Data set [2] in a line: Surfactant pKaH by acid-base titration. The text has this: Surfactant pKaH values were either collected from literature sources or measured according to the method described herein. The surfactant (1 g) was mixed with deionized water (60 g). Next, preparation steps were taken to convert all of the surfactants to their respective salt forms. Surfactants which are already in fully neutralized salt form (e.g., Geropon CG 3S, Geropon LG 3S, and Aminosyl SLG) were titrated “as is” (i.e., as received from the supplier). Surfactants in acid form were mixed with enough aqueous 0.5 M KOH (potassium hydroxide) to increase the solution pH to a pH of 10. Sodium lauroyl lactylate (Capmul S12L, 1 g) was mixed with 1.4 g TERGITOL™15-S-40 (70%), followed by enough aqueous 0.5 M KOH (potassium hydroxide) to increase the solution pH to a pH of 10. After the respective preparation steps above, the surfactant solutions were titrated with 0.5 M HCl to pH 2 while recording the pH and the amount of 0.5 M HCl added using a titrator, Mettler Toledo T70.

The mark [3] stands for this setting: literature data (footnotes of Table II).

On to `CCCCCCCCCC(=O)O` [Capric acid (C10), Capric acid], for which the pKaH in data set [1] (setting [3]) is recorded as 7.1-7.3. On to `CCCCCCCCCCCC(=O)O` [Lauric acid (C12), Lauric acid], for which the pKaH in data set [1] (setting [3]) is recorded as 7.5. `CCCCCCCCCCCCCC(=O)O` [Myristic acid (C14), Myristic acid]: the pKaH in data set [1] (setting [3]) is listed as 8.1-8.2. In data set [2], `CCCCCCCCCCCC(=O)N(C)CC(=O)O` [N-Lauroyl sarcosine] had a pKaH of 5.3. Take `CCCCCCCC/C=C\CCCCCCCC(=O)O` [Oleic acid (C18:1 cis-9), Oleic acid]: in data set [1] (setting [3]), the pKaH is recorded as 9.85. In the case of `CCCCCCCCCCCCCCCC(=O)O` [Palmitic acid (C16), Palmitic acid], the pKaH in data set [1] (setting [3]) was 8.6-8.8.

Take `CCCCCCCCCCCC(=O)OC(C)C(=O)OC(C)C(=O)[O-].[Na+]` (stereo not shown) [Sodium lauroyl lactylate]: the pKaH in data set [2] (titrated with 0.5 M HCl, pH at mid-point to the equivalence point) is listed as 5.25.

As to `CCCCCCCCCCCCCCCCCC(=O)O` [Stearic acid (C18), Stearic acid], the pKaH in data set [1] (setting [3]) is on record as 10.15.

For the compound `CCCCCCCC(=O)O` [n-octanoic acid], the pKaH in data set [1] (setting [3]) is reported as 6.3-6.5. In the case of sodium dodecylbenzenesulfonate, the pKaH entry in data set [1] (stated in the discussion, no source given) is on record as “less than 2.6”.
